# Measurements reported in the supplement of paper PMC6045584.
# ± gives the standard deviation of the averaged measurements.
# Tests used:
# [1] = compound: C[C@H](CN(C)C)Oc1nc(Nc2cc3cccc(Cl)c3cn2)cnc1C#N; experiment: surviving fraction relative to DMSO-only wells; higher = less growth inhibition; conditions: exposure time: 5 days
# Procedure, shortened: (§1)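 Viability was scored with CellTiter-Glo luminescence and normalised to the median of DMSO-only wells as surviving fraction. Beforehand, log-phase tumour cell lines were seeded at 250–500 cells per well in 384-well plates, allowed 24 hours, and exposed continuously for five days to inhibitors at 0.5, 1, 5, 10, 50, 100, 500 and 1000 nM. Only lines whose three screens gave replicate Pearson r >0.7 and median Z' >0.3 were kept.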
# [2] = compound: CCc1cc(Nc2nccc(-c3c(-c4ccc(OC)c(C(=O)Nc5c(F)cccc5F)c4)nc4ccccn34)n2)c(OC)cc1N1CCC(N2CCN(S(C)(=O)=O)CC2)CC1; experiment: as above; conditions: exposure time: 5 days
# Procedure, shortened: as §1
Test System,surviving fraction ([1]; 0.5 nM),surviving fraction ([1]; 1 nM),surviving fraction ([1]; 5 nM),surviving fraction ([1]; 10 nM),surviving fraction ([1]; 50 nM),surviving fraction ([1]; 100 nM),surviving fraction ([1]; 500 nM),surviving fraction ([1]; 1000 nM),surviving fraction ([2]; 0.5 nM),surviving fraction ([2]; 1 nM),surviving fraction ([2]; 5 nM),surviving fraction ([2]; 10 nM),surviving fraction ([2]; 50 nM),surviving fraction ([2]; 100 nM),surviving fraction ([2]; 500 nM),surviving fraction ([2]; 1000 nM)
OS25HAL BONE,0.972 ± 0.013,0.965 ± 0.034,1.049 ± 0.0085,0.979 ± 0.024,1.07 ± 0.057,1.09 ± 0.014,0.615 ± 0.082,0.217 ± 0.023,0.997 ± 0.011,1.02 ± 0.011,1.032 ± 0.01,1.04 ± 0.037,1.02 ± 0.015,1.04 ± 0.018,0.948 ± 0.055,0.944 ± 0.05
OSHN BONE,1.06 ± 0.015,1.08 ± 0.025,1.07 ± 0.015,1.068 ± 0.0038,1.13 ± 0.029,1.1 ± 0.019,0.709 ± 0.1,0.11 ± 0.019,1.02 ± 0.018,1.04 ± 0.036,1.03 ± 0.038,1.06 ± 0.034,1.02 ± 0.033,1.05 ± 0.04,1.01 ± 0.023,1.04 ± 0.048
PCI30 HEADNECK,0.99 ± 0.044,0.999 ± 0.019,1.06 ± 0.059,1.06 ± 0.11,0.9137 ± 0.0042,0.827 ± 0.079,0.337 ± 0.021,0.322 ± 0.017,0.889 ± 0.028,0.961 ± 0.15,1 ± 0.064,1.04 ± 0.045,0.947 ± 0.054,1.07 ± 0.032,0.989 ± 0.065,0.979 ± 0.065
RDES SOFT TISSUE,1.28 ± 0.031,1.37 ± 0.031,1.3 ± 0.14,1.2 ± 0.12,1.17 ± 0.086,1.32 ± 0.041,1.33 ± 0.1,1.38 ± 0.13,1.25 ± 0.081,1.13 ± 0.14,1.19 ± 0.15,1.2 ± 0.043,0.998 ± 0.2,1.09 ± 0.043,0.924 ± 0.1,1.25 ± 0.21
S68 BREAST,0.922 ± 0.12,1.07 ± 0.076,1.15 ± 0.062,0.966 ± 0.065,0.874 ± 0.14,0.652 ± 0.052,0.153 ± 0.0038,0.114 ± 0.0055,0.916 ± 0.045,1.22 ± 0.11,1.29 ± 0.2,1.06 ± 0.18,1.1 ± 0.26,1.06 ± 0.27,0.688 ± 0.022,0.737 ± 0.089
SAOS2 BONE,1.18 ± 0.055,1.19 ± 0.047,1.17 ± 0.058,1.137 ± 0.01,1.39 ± 0.1,1.32 ± 0.068,1.08 ± 0.12,0.944 ± 0.042,1.1 ± 0.024,1.04 ± 0.025,1.11 ± 0.035,1.144 ± 0.0087,1.09 ± 0.016,1.19 ± 0.025,1.16 ± 0.045,1.11 ± 0.018
SCC003 HEADNECK,1.04 ± 0.09,1.06 ± 0.022,1.06 ± 0.055,1.05 ± 0.054,1.05 ± 0.079,1.1 ± 0.018,0.848 ± 0.011,0.97 ± 0.12,0.958 ± 0.069,1.13 ± 0.031,0.966 ± 0.024,1.1 ± 0.12,1.03 ± 0.14,1.1 ± 0.19,1.03 ± 0.019,1.08 ± 0.085
SCC36 HEADNECK,1.05 ± 0.03,1.07 ± 0.038,0.991 ± 0.065,1.15 ± 0.055,1.07 ± 0.041,1.13 ± 0.042,0.427 ± 0.053,0.313 ± 0.017,0.967 ± 0.035,1.04 ± 0.096,1.11 ± 0.091,1.1 ± 0.072,1.07 ± 0.027,1.09 ± 0.078,0.887 ± 0.03,0.791 ± 0.024
SCC47 HEADNECK,1.06 ± 0.052,1.06 ± 0.091,1.06 ± 0.065,1.11 ± 0.054,1.14 ± 0.059,1.12 ± 0.1,0.671 ± 0.049,0.925 ± 0.0085,0.99 ± 0.038,0.992 ± 0.047,1.05 ± 0.047,1.06 ± 0.021,1 ± 0.075,1.08 ± 0.038,1.04 ± 0.028,1.03 ± 0.04
SCC90 HEADNECK,1.05 ± 0.08,1.02 ± 0.082,1.02 ± 0.09,0.936 ± 0.1,0.991 ± 0.038,0.911 ± 0.034,0.189 ± 0.03,0.215 ± 0.021,1 ± 0.084,1.01 ± 0.11,1.02 ± 0.052,1.1 ± 0.023,1.02 ± 0.046,1.12 ± 0.21,1.06 ± 0.23,1.14 ± 0.046
